Test results reported in the NIST ThermoML archive (doi:10.1021/je700260f).

Conditions: 323.14 K, Liquid, Vibrating tube method

FC(C(F)(F)F)C(F)(F)F [1,1,1,2,3,3,3-heptafluoropropane]
Conditions	mass density [kg/m3]
18469 kPa	1413.4
18489 kPa	1413.6
18518 kPa	1413.8
18639 kPa	1414.5
18664 kPa	1414.6
18688 kPa	1414.7
18713 kPa	1414.8
18738 kPa	1414.8
18764 kPa	1415.1
18787 kPa	1415.1
18806 kPa	1415.3
18836 kPa	1415.4
19030 kPa	1416.6
19049 kPa	1416.5
19073 kPa	1416.7
19091 kPa	1416.8
19111 kPa	1416.8
19136 kPa	1416.9
19224 kPa	1417.4
19244 kPa	1417.5
19276 kPa	1417.6
19303 kPa	1417.9
19335 kPa	1418
19359 kPa	1418.1
19382 kPa	1418.2
19410 kPa	1418.4
19431 kPa	1418.5
19452 kPa	1418.4
19473 kPa	1418.7
19509 kPa	1418.8
19534 kPa	1419.1
19563 kPa	1419.2
19591 kPa	1419.1
19608 kPa	1419.2
19637 kPa	1419.5
19667 kPa	1419.6
19693 kPa	1419.8
19721 kPa	1419.9
19746 kPa	1419.9
19771 kPa	1420
19795 kPa	1420.5
19830 kPa	1420.4
19857 kPa	1420.6
19893 kPa	1420.7
19917 kPa	1420.9
19942 kPa	1421.1
19968 kPa	1421.2
19996 kPa	1421.3
20014 kPa	1421.4
20047 kPa	1421.4
20075 kPa	1421.5
20101 kPa	1421.8
20124 kPa	1421.9
20452 kPa	1423.5
20511 kPa	1423.8
20538 kPa	1423.8
20571 kPa	1424.1
20600 kPa	1424.3
20632 kPa	1424.4
20657 kPa	1424.6
20681 kPa	1424.6
20715 kPa	1424.8
20735 kPa	1424.9
20759 kPa	1425
20780 kPa	1425.1
20814 kPa	1425.2
20837 kPa	1425.4
20864 kPa	1425.5
20891 kPa	1425.6
20919 kPa	1425.8
20943 kPa	1425.8
20963 kPa	1426
20994 kPa	1426.2
21021 kPa	1426.3
21041 kPa	1426.4
21069 kPa	1426.5
21100 kPa	1426.5
21124 kPa	1426.7
21151 kPa	1426.8
21174 kPa	1427
21195 kPa	1427.2
21219 kPa	1427.1
21243 kPa	1427.2
21271 kPa	1427.4
21296 kPa	1427.5
21318 kPa	1427.7
21353 kPa	1427.8
21376 kPa	1428.1
21404 kPa	1428.1
21424 kPa	1428.1
21456 kPa	1428.3
21478 kPa	1428.4
21511 kPa	1428.6
21546 kPa	1428.8
21572 kPa	1428.9
21597 kPa	1429
21630 kPa	1429.1
21660 kPa	1429.3
21684 kPa	1429.4
21712 kPa	1429.4
21734 kPa	1429.6
22001 kPa	1430.9
22031 kPa	1431
22058 kPa	1431.1
22088 kPa	1431.3
22114 kPa	1431.5
22137 kPa	1431.4
22174 kPa	1431.7
22209 kPa	1431.8
22233 kPa	1432
22272 kPa	1432.1
22308 kPa	1432.2
22334 kPa	1432.5
22366 kPa	1432.6
22390 kPa	1432.7
22418 kPa	1432.7
22439 kPa	1432.9
22462 kPa	1433.1
22489 kPa	1433.2
22513 kPa	1433.3
22533 kPa	1433.3
22571 kPa	1433.6
22602 kPa	1433.6
22627 kPa	1433.8
22657 kPa	1434
22685 kPa	1434.1
22721 kPa	1434.2
22744 kPa	1434.3
22777 kPa	1434.5
22801 kPa	1434.6
22825 kPa	1434.6
22862 kPa	1434.8
22889 kPa	1435
22927 kPa	1435.2
22962 kPa	1435.2
23026 kPa	1435.6
23049 kPa	1435.7
23075 kPa	1435.7
23101 kPa	1436
23130 kPa	1436.1
23163 kPa	1436.3
23185 kPa	1436.3
23221 kPa	1436.4
23254 kPa	1436.5
23276 kPa	1436.7
23305 kPa	1436.8
23328 kPa	1437
23354 kPa	1437.1
23380 kPa	1437.2
23402 kPa	1437.2
23428 kPa	1437.5
23454 kPa	1437.5
23484 kPa	1437.7
23510 kPa	1437.7
23538 kPa	1437.9
23560 kPa	1438
23587 kPa	1438.1
23609 kPa	1438.2
23776 kPa	1439
23810 kPa	1439
23832 kPa	1439.2
23865 kPa	1439.2
23891 kPa	1439.5
23918 kPa	1439.6
23949 kPa	1439.6
23975 kPa	1439.9
23998 kPa	1439.9
24025 kPa	1440
24056 kPa	1440
24079 kPa	1440.3
24109 kPa	1440.4
24134 kPa	1440.5
24156 kPa	1440.7
24187 kPa	1440.7
24223 kPa	1440.9
24254 kPa	1441.1
24277 kPa	1441.2
24304 kPa	1441.1
24342 kPa	1441.4
24400 kPa	1441.5
24420 kPa	1441.7
24564 kPa	1442.3
24596 kPa	1442.6
24658 kPa	1442.8
24699 kPa	1443
24727 kPa	1443.1
24768 kPa	1443.2
24794 kPa	1443.4
24828 kPa	1443.6
24859 kPa	1443.8
24889 kPa	1443.8
24914 kPa	1444
24955 kPa	1444.1
24984 kPa	1444.1
25017 kPa	1444.3
25047 kPa	1444.4
25081 kPa	1444.7
25116 kPa	1444.8
25141 kPa	1445
25410 kPa	1446.1
25440 kPa	1446.3
25947 kPa	1448.3
25974 kPa	1448.4
26063 kPa	1448.8
26227 kPa	1449.5
26309 kPa	1449.7
